PubChem BioAssay AID2060893 (Molecular Pharmacology Branch, DTP, NCI, 2025)

Test system: K86415-001-R-J1-PDC complex spheroids, viability
Experiment: Anticancer human tumor K86415-001-R-J1-PDC patient-derived lung adenocarcinoma cell line growth inhibition [RAS]
Details: for IC50: curve of first compound; for viability, T/C: stronger effect = lower value
Outline: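 Multi-cell-type spheroids: tumor cells plus HUVEC endothelial cells and mesenchymal stem cells. RAS-pathway inhibitors were combined with targeted agents, each dosed in half-log steps down from clinical Cmax, or from 10 microM when Cmax was unknown.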

[1] = second compound 0.000949 µM, first compound 0.0316 µM
[2] = second compound 0.000949 µM, first compound 0.1 µM
[3] = second compound 0.000949 µM, first compound 0.316 µM
[4] = second compound 0.000949 µM, first compound 1 µM
[5] = second compound 0.000949 µM, first compound 3.16 µM
[6] = second compound 0.000949 µM, first compound 10 µM
[7] = second compound 0.003 µM, first compound 0.0316 µM
[8] = second compound 0.003 µM, first compound 0.1 µM
[9] = second compound 0.003 µM, first compound 0.316 µM
[10] = second compound 0.003 µM, first compound 1 µM
[11] = second compound 0.003 µM, first compound 3.16 µM
[12] = second compound 0.003 µM, first compound 10 µM
[13] = second compound 0.00949 µM, first compound 0.0316 µM
[14] = second compound 0.00949 µM, first compound 0.1 µM
[15] = second compound 0.00949 µM, first compound 0.316 µM
[16] = second compound 0.00949 µM, first compound 1 µM
[17] = second compound 0.00949 µM, first compound 3.16 µM
[18] = second compound 0.00949 µM, first compound 10 µM
[19] = second compound 0.03 µM, first compound 0.0316 µM
[20] = second compound 0.03 µM, first compound 0.1 µM
[21] = second compound 0.03 µM, first compound 0.316 µM
[22] = second compound 0.03 µM, first compound 1 µM
[23] = second compound 0.03 µM, first compound 3.16 µM
[24] = second compound 0.03 µM, first compound 10 µM
[25] = second compound 0.0949 µM, first compound 0.0316 µM
[26] = second compound 0.0949 µM, first compound 0.1 µM
[27] = second compound 0.0949 µM, first compound 0.316 µM
[28] = second compound 0.0949 µM, first compound 1 µM
[29] = second compound 0.0949 µM, first compound 3.16 µM
[30] = second compound 0.0949 µM, first compound 10 µM
[31] = second compound 0.3 µM, first compound 0.0316 µM
[32] = second compound 0.3 µM, first compound 0.1 µM
[33] = second compound 0.3 µM, first compound 0.316 µM
[34] = second compound 0.3 µM, first compound 1 µM
[35] = second compound 0.3 µM, first compound 3.16 µM
[36] = second compound 0.3 µM, first compound 10 µM
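Further: spheroids exposed to agents for seven days before readout.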

## Cc1nc(N2CCC3(CC2)COC(C)C3N)c(CO)nc1Sc1ccnc(N)c1Cl (stereo unspecified) + CCn1c(-c2cc(N3CCN(C)CC3)cnc2C(C)OC)c2c3cc(ccc31)-c1csc(n1)CC(NC(=O)C1CC1C)C(=O)N1CCCC(N1)C(=O)OCC(C)(C)C2
Second compound 0.000949 µM
  IC50: < 31.6 nM
Second compound 0.003 µM
  IC50: < 31.6 nM
Second compound 0.00949 µM
  IC50: < 31.6 nM
Second compound 0.03 µM
  IC50: < 31.6 nM
Second compound 0.0949 µM
  IC50: < 31.6 nM
Second compound 0.3 µM
  IC50: < 31.6 nM
[1]
  viability, T/C: 35.8%
[2]
  viability, T/C: 20.5%
[3]
  viability, T/C: 9.55%
[4]
  viability, T/C: 10.9%
[5]
  viability, T/C: 7.52%
[6]
  viability, T/C: 7.71%
[7]
  viability, T/C: 15.5%
[8]
  viability, T/C: 11.7%
[9]
  viability, T/C: 7.5%
[10]
  viability, T/C: 6.79%
[11]
  viability, T/C: 4.71%
[12]
  viability, T/C: 4.41%
[13]
  viability, T/C: 10.5%
[14]
  viability, T/C: 6.46%
[15]
  viability, T/C: 5.74%
[16]
  viability, T/C: 4.02%
[17]
  viability, T/C: 3.99%
[18]
  viability, T/C: 4.11%
[19]
  viability, T/C: 5.58%
[20]
  viability, T/C: 3.68%
[21]
  viability, T/C: 4.39%
[22]
  viability, T/C: 3.48%
[23]
  viability, T/C: 3.37%
[24]
  viability, T/C: 3.97%
[25]
  viability, T/C: 3.82%
[26]
  viability, T/C: 3.07%
[27]
  viability, T/C: 3.2%
[28]
  viability, T/C: 3.97%
[29]
  viability, T/C: 3.81%
[30]
  viability, T/C: 3.34%
[31]
  viability, T/C: 2.66%
[32]
  viability, T/C: 3.52%
[33]
  viability, T/C: 3.88%
[34]
  viability, T/C: 3.34%
[35]
  viability, T/C: 4.46%
[36]
  viability, T/C: 2.74%

## NC1c2ccccc2OC12CCN(c1cnc3c(N4CCCc5ncccc54)n[nH]c3n1)CC2 (stereo unspecified) + CCn1c(-c2cc(N3CCN(C)CC3)cnc2C(C)OC)c2c3cc(ccc31)-c1csc(n1)CC(NC(=O)C1CC1C)C(=O)N1CCCC(N1)C(=O)OCC(C)(C)C2
Second compound 0.000949 µM
  IC50: < 31.6 nM
Second compound 0.003 µM
  IC50: < 31.6 nM
Second compound 0.00949 µM
  IC50: < 31.6 nM
Second compound 0.03 µM
  IC50: < 31.6 nM
Second compound 0.0949 µM
  IC50: < 31.6 nM
Second compound 0.3 µM
  IC50: < 31.6 nM
[1]
  viability, T/C: 17.9%
[2]
  viability, T/C: 13.2%
[3]
  viability, T/C: 7.58%
[4]
  viability, T/C: 9.76%
[5]
  viability, T/C: 9.06%
[6]
  viability, T/C: 7.7%
[7]
  viability, T/C: 9.27%
[8]
  viability, T/C: 8.67%
[9]
  viability, T/C: 6.53%
[10]
  viability, T/C: 6.35%
[11]
  viability, T/C: 4.86%
[12]
  viability, T/C: 5.29%
[13]
  viability, T/C: 7.91%
[14]
  viability, T/C: 5.02%
[15]
  viability, T/C: 5.89%
[16]
  viability, T/C: 4.63%
[17]
  viability, T/C: 5.75%
[18]
  viability, T/C: 4.91%
[19]
  viability, T/C: 5.17%
[20]
  viability, T/C: 4.43%
[21]
  viability, T/C: 5.11%
[22]
  viability, T/C: 5.46%
[23]
  viability, T/C: 3.67%
[24]
  viability, T/C: 5.21%
[25]
  viability, T/C: 3.52%
[26]
  viability, T/C: 4.51%
[27]
  viability, T/C: 4.52%
[28]
  viability, T/C: 3.8%
[29]
  viability, T/C: 3.7%
[30]
  viability, T/C: 4.75%
[31]
  viability, T/C: 4.69%
[32]
  viability, T/C: 4.26%
[33]
  viability, T/C: 4.59%
[34]
  viability, T/C: 3.96%
[35]
  viability, T/C: 4.65%
[36]
  viability, T/C: 4.77%

## Nc1ccn(C2OC(CO)C(O)C2(F)F)c(=O)n1 (stereo unspecified) + CCn1c(-c2cc(N3CCN(C)CC3)cnc2C(C)OC)c2c3cc(ccc31)-c1csc(n1)CC(NC(=O)C1CC1C)C(=O)N1CCCC(N1)C(=O)OCC(C)(C)C2
Second compound 0.000949 µM
  IC50: < 3.16 nM
Second compound 0.003 µM
  IC50: < 3.16 nM
Second compound 0.00949 µM
  IC50: < 3.16 nM
Second compound 0.03 µM
  IC50: < 3.16 nM
Second compound 0.0949 µM
  IC50: < 3.16 nM
Second compound 0.3 µM
  IC50: < 3.16 nM
Second compound 0.000949 µM, first compound 0.00316 µM
  viability, T/C: 47%
Second compound 0.000949 µM, first compound 0.01 µM
  viability, T/C: 45.2%
[1]
  viability, T/C: 34%
[2]
  viability, T/C: 26.3%
[3]
  viability, T/C: 21.8%
[4]
  viability, T/C: 16.3%
Second compound 0.003 µM, first compound 0.00316 µM
  viability, T/C: 24.2%
Second compound 0.003 µM, first compound 0.01 µM
  viability, T/C: 19.4%
[7]
  viability, T/C: 18.2%
[8]
  viability, T/C: 19.3%
[9]
  viability, T/C: 15.4%
[10]
  viability, T/C: 11.8%
Second compound 0.00949 µM, first compound 0.00316 µM
  viability, T/C: 11.9%
Second compound 0.00949 µM, first compound 0.01 µM
  viability, T/C: 8.79%
[13]
  viability, T/C: 10.1%
[14]
  viability, T/C: 13.8%
[15]
  viability, T/C: 9.53%
[16]
  viability, T/C: 9.18%
Second compound 0.03 µM, first compound 0.00316 µM
  viability, T/C: 6.18%
Second compound 0.03 µM, first compound 0.01 µM
  viability, T/C: 6.2%
[19]
  viability, T/C: 6.46%
[20]
  viability, T/C: 5.05%
[21]
  viability, T/C: 3.47%
[22]
  viability, T/C: 4.42%
Second compound 0.0949 µM, first compound 0.00316 µM
  viability, T/C: 4.43%
Second compound 0.0949 µM, first compound 0.01 µM
  viability, T/C: 4.18%
[25]
  viability, T/C: 4.08%
[26]
  viability, T/C: 3.58%
[27]
  viability, T/C: 2.79%
[28]
  viability, T/C: 2.41%
Second compound 0.3 µM, first compound 0.00316 µM
  viability, T/C: 3.51%
Second compound 0.3 µM, first compound 0.01 µM
  viability, T/C: 3.18%
[31]
  viability, T/C: 3.3%
[32]
  viability, T/C: 2.52%
[33]
  viability, T/C: 3.52%
[34]
  viability, T/C: 2.26%
